Measured values published in patent US20250257041A1, “INDUCERS OF INTEGRATED STRESS RESPONSE TO TREAT CANCER” (The Board of Regents of The University of Texas System, priority 2022, published 2025).

Tested on: HCT116 WT
Test: Proliferation of HCT116 colorectal cell line, Cell TiterGlo
Assay type: cell-based, human
Details: Homo sapiens, HCT-116, wild type HCT116; 10-point dose response in triplicate; multiple values = separate independent experiments; read-out: HCT116 IC50 (uM) HCT116 WT
Description: Briefly, compounds were tested for their effect on proliferation of HCT116 colorectal cell lines using Cell TiterGlo (Promega). Each compound was tested in a 10-point dose response experiment in triplicate. Multiple values in the column titled HCT116 WT reflect separate independent experiments. The three columns titled “HCT116 WT (repeat)”, “HCT116-CGN2KO” and “HCT116 WT+ISRIB” provide data for selected compounds that were tested simultaneously under three conditions. The HCT116 WT column lists IC50 against the wild type HCT116 colorectal cancer cell line. The HCT116-CGN2KO lists IC50 data for cells in which one component of the integrated stress response, GCN2, has been knocked out using CRISPR technology.

Row | IC50 | SMILES
1 | 11.4 µM | Cn1nc(-c2ccc(NC(=O)c3ccccc3COCc3cn(CCOCCNC(=S)Nc4ccc(-c5c6ccc(=O)cc-6oc6cc(O)ccc56)c(C(=O)O)c4)nn3)cc2)cc1NC(=O)c1ccccc1 [SW393345, 5-(3-(2-(2-(4-(((2-((4-(5-benzamido-1-methyl-1H-pyrazol-3-yl)phenyl)carbamoyl)benzyl)oxy)methyl)-1H-1,2,3-triazol-1-yl)ethoxy)ethyl)thioureido)-2-(6-hydroxy-3-oxo-3H-xanthen-9-yl)benzoic acid]
2 | 0.024 µM | Cn1nc(-c2ccc(NC(=O)C3CCCCC3)cc2)cc1NC(=O)c1ccccc1 [SW394442, N-(3-(4-(Cyclohexanecarboxamido)phenyl)-1-methyl-1H-pyrazol-5-yl)benzamide]
3 | 0.02 µM | Cn1nc(-c2ccc(NC(=O)c3cccnc3Cl)cc2)cc1NC(=O)c1ccccc1 [SW394443, N-(4-(5-Benzamido-1-methyl-1H-pyrazol-3-yl)phenyl)-2-chloronicotinamide]
4 | > 50 µM | Cn1nc(C2CCC(NC(=O)c3ccccc3Cl)CC2)cc1NC(=O)c1ccccc1 (stereo not shown) [SW394444, N-(4-(5-benzamido-1-methyl-1H-pyrazol-3-yl)cyclohexyl)-2-chlorobenzamide]
5 | 0.05 µM | Cn1nc(-c2ccc(NC(=O)c3ccncc3Cl)cc2)cc1NC(=O)c1ccccc1 [SW394446, N-(4-(5-Benzamido-1-methyl-1H-pyrazol-3-yl)phenyl)-3-chloroisonicotinamide]
6 | 0.58 µM | Cn1nc(-c2ccc(NC(=O)c3ncccc3Cl)cc2)cc1NC(=O)c1ccccc1 [SW394447, N-(4-(5-Benzamido-1-methyl-1H-pyrazol-3-yl)phenyl)-3-chloropicolinamide]
7 | 3.94 µM | O=C(Nc1cccc(-c2ccc(NC(=O)c3ccccc3Cl)cc2)c1)c1ccccc1 [SW394484, N-(3′-benzamido-[1,1′-biphenyl]-4-yl)-2-chlorobenzamide]
8 | 0.107 µM | Cn1nc(-c2ccc(NC(=O)c3ccccc3-c3cncnc3)cc2)cc1NC(=O)c1ccccc1 [SW394485, N-(4-(5-Benzamido-1-methyl-1H-pyrazol-3-yl)phenyl)-2-(pyrimidin-5-yl)benzamide]
9 | 0.025 µM | Cn1nc(-c2ccc(NC(=O)c3ccccc3-c3cccnc3)cc2)cc1NC(=O)c1ccccc1 [SW394486, N-(4-(5-Benzamido-1-methyl-1H-pyrazol-3-yl)phenyl)-2-(pyridin-3-yl)benzamide]
10 | 0.023 µM | C#Cc1cccc(C(=O)Nc2cc(-c3ccc(NC(=O)c4cccnc4Cl)cc3)nn2C)c1 [SW394487, 2-Chloro-N-(4-(5-(3-ethynylbenzamido)-1-methyl-1H-pyrazol-3-yl)phenyl)nicotinamide]
11 | 0.32 µM | Cn1nc(-c2ccc(NC(=O)C3CCCC3)cc2)cc1NC(=O)c1ccccc1 [SW394488, N-(3-(4-(Cyclopentanecarboxamido)phenyl)-1-methyl-1H-pyrazol-5-yl)benzamide]
12 | 3.84 µM | Cn1nc(-c2ccc(NC(=O)C3CCN(C(=O)OC(C)(C)C)CC3)cc2)cc1NC(=O)c1ccccc1 [SW394490, tert-butyl4-((4-(5-benzamido-1-methyl-1H-pyrazol-3-yl)phenyl)carbamoyl)piperidine-1-carboxylate]
13 | 12 µM | Cn1nc(-c2ccc(NC(=O)C3CCC3)cc2)cc1NC(=O)c1ccccc1 [SW394491, N-(3-(4-(Cyclobutanecarboxamido)phenyl)-1-methyl-1H-pyrazol-5-yl)benzamide]
14 | 0.044 µM | Cn1nc(-c2ccc(NC(=O)C3CCCCCC3)cc2)cc1NC(=O)c1ccccc1 [SW394515, N-(4-(5-Benzamido-1-methyl-1H-pyrazol-3-yl)phenyl)cycloheptanecarboxamide]
15 | 0.32 µM | Cn1nc(-c2ccc(NC(=O)C3CCOCC3)cc2)cc1NC(=O)c1ccccc1 [SW394517, N-(4-(5-Benzamido-1-methyl-1H-pyrazol-3-yl)phenyl)tetrahydro-2H-pyran-4-carboxamide]
16 | 0.016 µM | Cc1ncccc1C(=O)Nc1ccc(-c2cc(NC(=O)c3ccccc3)n(C)n2)cc1 [SW394518, N-(4-(5-Benzamido-1-methyl-1H-pyrazol-3-yl)phenyl)-2-methylnicotinamide]
17 | 0.25 µM | Cc1ccncc1C(=O)Nc1ccc(-c2cc(NC(=O)c3ccccc3)n(C)n2)cc1 [SW394519, N-(4-(5-Benzamido-1-methyl-1H-pyrazol-3-yl)phenyl)-4-methylnicotinamide]

Row | IC50 | SMILES
18 | 0.121 µM | Cn1nc(-c2ccc(NC(=O)c3ccccc3COCCNC(=O)OC(C)(C)C)cc2)cc1NC(=O)c1ccccc1 [SW394532, tert-butyl (2-((2-((4-(5-benzamido-1-methyl-1H-pyrazol-3-yl)phenyl)carbamoyl)benzyl)oxy)ethyl)carbamate]
19 | 1.2 µM | Cn1nc(-c2ccc(NC(=O)c3ccccc3C#CCNC(=O)OC(C)(C)C)cc2)cc1NC(=O)c1ccccc1 [SW394544, tert-butyl(3-(2-((4-(5-benzamido-1-methyl-1H-pyrazol-3-yl)phenyl)carbamoyl)phenyl)prop-2-yn-1-yl)carbamate]
20 | 0.033 µM | Cn1nc(-c2ccc(NC(=O)c3ccccc3Cl)cc2)cc1NC(=O)C1CCCCC1 [SW394546, 2-Chloro-N-(4-(5-(Cyclohexanecarboxamido)-1-methyl-1H-pyrazol-3-yl)phenyl)benzamide]
21 | 0.05 µM | Cn1nc(-c2ccc(NC(=O)c3ccccc3Cl)cc2)cc1NC(=O)C1CCOCC1 [SW394547, N-(3-(4-(2-Chlorobenzamido)phenyl)-1-methyl-1H-pyrazol-5-yl)tetrahydro-2H-pyran-4-car-boxamide]
22 | 1.13 µM | Cn1nc(-c2ccc(NC(=O)c3ccccc3-c3ccc([N+](=O)[O-])cc3)cc2)cc1NC(=O)c1ccccc1 [SW394548, N-(4-(5-Benzamido-1-methyl-1H-pyrazol-3-yl)phenyl)-4′-nitro-[1,1′-biphenyl]-2-carboxam-ide]
23 | 4.1 µM | C#Cc1cccc(C(=O)Nc2cc(-c3ccc(NC(=O)c4ccccc4-c4ccc(N=[N+]=[N-])cc4)cc3)nn2C)c1 [SW394549, 4′-Azido-N-(4-(5-(3-ethynylbenzamido)-1-methyl-1H-pyrazol-3-yl)phe-nyl)[1,1′-biphenyl]-2-carboxamide]
24 | 5.8 µM | O=C(Nc1ccc(-c2cc(NC(=O)c3ccccc3)on2)cc1)c1ccccc1 [SW394572, N-(4-(5-benzamidoisoxazol-3-yl)phenyl)benzamide]
25 | 0.55 µM | Cc1ncncc1C(=O)Nc1ccc(-c2cc(NC(=O)c3ccccc3)n(C)n2)cc1 [SW394598, N-(4-(5-Benzamido-1-methyl-1H-pyrazol-3-yl)phenyl)-4-methylpyrimidine-5-carboxamide]
26 | 0.05 µM | Cn1nc(-c2ccc(NC(=O)c3ccccc3Cl)cc2)cc1NC(=O)C1CCCCCC1 [SW394599, N-(3-(4-(2-Chlorobenzamido)phenyl)-1-methyl-1H-pyrazol-5-yl)cycloheptanecarboxamide]
27 | 0.051 µM | Cn1nc(-c2ccc(NC(=O)c3ccccc3Cl)cc2)cc1NC(=O)C1CCCC1 [SW394600, 2-Chloro-N-(4-(5-(cyclopentanecarboxamido)-1-methyl-1H-pyrazol-3-yl)phenyl)benzamide]
28 | 0.049 µM | Cn1nc(-c2ccc(NC(=O)c3ccccc3Cl)cc2)cc1NC(=O)C1CCC(F)(F)CC1 [SW394602, 2-Chloro-N-(4-(5-(4,4-difluorocyclohexane-1-carboxamido)-1-methyl-1H-pyrazol-3-yl)phen-yl)benzamide]
29 | 0.02 µM | Cn1nc(-c2ccc(NC(=O)c3cccnc3C(F)(F)F)cc2)cc1NC(=O)c1ccccc1 [SW394603, N-(4-(5-Benzamido-1-methyl-1H-pyrazol-3-yl)phenyl)-2-(trifluoromethyl)nicotinamide]
30 | 0.017 µM | Cn1nc(-c2ccc(NC(=O)c3cccnc3C(F)(F)F)cc2)cc1NC(=O)c1ccccc1F [SW394629, N-(4-(5-(2-Fluorobenzamido)-1-methyl-1H-pyrazol-3-yl)phenyl)-2-(trifluoromethyl)nicotinamide]
31 | 0.014 µM | Cc1ncccc1C(=O)Nc1ccc(-c2cc(NC(=O)c3ccccc3Cl)n(C)n2)cc1 [SW394630, N-(4-(5-(2-Chlorobenzamido)-1-methyl-1H-pyrazol-3-yl)phenyl)-2-methylnicotinamide]
32 | 0.022 µM | Cn1nc(-c2ccc(NC(=O)c3cccnc3C(F)(F)F)cc2)cc1NC(=O)c1ccccc1Cl [SW394631, N-(4-(5-(2-Chlorobenzamido)-1-methyl-1H-pyrazol-3-yl)phenyl)-2-(trifluoromethyl)nicotinamide]
33 | 0.071 µM | Cn1nc(-c2ccc(NC(=O)c3ccccc3COCCNC(=O)CCCC[C@H]3SC[C@H]4NC(=O)N[C@H]43)cc2)cc1NC(=O)c1ccccc1 [SW394656, N-(4-(5-benzamido-1-methyl-1H-pyrazol-3-yl)phenyl)-2-((2-(5-((3aR,4R,6aS)-2-oxohexahydro-1H-thieno[3,4-d]imidazol-4-yl)pentanamido)ethoxy)methyl)benzamide]
34 | 0.044 µM | Cn1nc(-c2ccc(CC(=O)c3ccccc3CCCNC(=O)CCCC[C@@H]3CC[C@]4(C)CCC[C@H]34)cc2)cc1CC(=O)c1ccccc1 [SW394657]

Same assay, conditions: wild type HCT116; 10-point dose response in triplicate; multiple values = separate independent experiments

Row | HCT116 IC50 (uM) HCT116 WT | SMILES
35 | inactive | O=C(Nc1cccc(-c2ccc(NC(=O)c3ccccc3Cl)cc2)n1)c1ccccc1 [SW394535, N-(4-(6-benzamidopyridin-2-yl)phenyl)-2-chlorobenzamide]
36 | inactive | O=C(Nc1ccc(-c2nnc(NC(=O)c3ccccc3Cl)o2)cc1)c1ccccc1Cl [SW394597, 2-chloro-N-(4-(5-(2-chlorobenzamido)-1,3,4-oxadiazol-2-yl)phenyl)benzamide]

Same assay, conditions: wild type HCT116; 10-point dose response in triplicate; multiple values = separate independent experiments; read-out: HCT116 IC50 (uM) HCT116 WT

Row | IC50 | SMILES
37 | 7.4 µM | Cn1nc(-c2ccc(NC(=O)N3CCCCC3)cc2)cc1NC(=O)c1ccccc1 [SW394601, N-(4-(5-benzamido-1-methyl-1H-pyrazol-3-yl)phenyl)piperidine-1-carboxamide]
